From patent US20240067625A1, “SMALL-MOLECULE MODULATORS OF THE ORPHAN NUCLEAR RECEPTOR TLX” (priority 2020, published 2024)

Target: TLX LBD (Homo sapiens (Human), UniProt Q9Y466)
Test: ALPHA screen assay for TLX LBD and coactivator peptide recruitment
Type: biochemical
Settings: Table 3; for Average ALPHA signal at 200 μM (std. dev.): mean (std. dev.)
Protocol: Assays were performed according to the manufacturer's protocol (PerkinElmer, USA), with the following modifications: Ligands were tested for TLX-coactivator binding in 50 mM phosphate buffer, 150 mM NaCl, pH 7, 1 mM DTT and 100 μM CHAPS. Ligands were dissolved and diluted in DMSO as stocks and were prepared in assay buffer from the original stock in the 100% DMSO and added to the assay plate. Biotinylated SRC peptide and polyhistidine tagged TLX LBD were diluted in assay buffer, subsequently added to respective ALPHA beads, under low light. The plates were spun down, mixed with a shaker and incubated for 120 minutes and read on a TECAN Plate reader using the manufacturer's protocol.

Sequence of TLX LBD (Q9Y466 155-383): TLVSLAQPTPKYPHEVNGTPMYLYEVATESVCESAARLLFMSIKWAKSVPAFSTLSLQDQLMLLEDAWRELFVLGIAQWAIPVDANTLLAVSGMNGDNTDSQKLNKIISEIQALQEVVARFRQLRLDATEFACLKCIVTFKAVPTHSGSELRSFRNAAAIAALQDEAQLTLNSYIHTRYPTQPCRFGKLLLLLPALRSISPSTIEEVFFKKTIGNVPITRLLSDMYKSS

SMILES	Average ALPHA signal at 200 μM (std. dev.)	EC50 [nM]
CNc1ncccc1C(=O)N1CCN(Cc2ccccc2)[C@H](C)C1 [Compound 88]	2.17 (0.21)	
Cc1ccc(CN2CCN(C(=O)c3cccnc3NCCC(C)C)[C@H](C)C2)cc1 [Compound 45]	3.50 (0.06)	0.0113
COC(=O)C[C@H]1[C@H](C)N(Cc2ccccc2)CCN1C(=O)c1cccnc1NCCC(C)C [Compound 70]	2.63 (0.01)	0.00485
CC(C)CCNc1ncccc1C(=O)N1C[C@H](CC(=O)O)N(Cc2ccccc2)[C@H](C)C1 [Compound 67]	0.97 (0.03)	
CC(C)CCNc1ncccc1C(=O)N1CCN(C)C[C@@H]1C [Compound 38]	0.85 (0.06)	
COC(=O)c1ccccc1CN1CCN(C(=O)c2cccnc2NCCC(C)C)CC1 [Compound 55]	2.87 (0.07)	0.0412
CC(C)Nc1ncccc1C(=O)N1CCN(Cc2ccccc2)[C@@H](C)C1 [Compound 90]	1.57 (0.06)	
CC(C)CCNc1ncccc1C(=O)N1CCN(Cc2ccccn2)C[C@@H]1C [Compound 34]	1.29 (0.05)	
CC(C)CCNc1ncccc1C(=O)N1C[C@H](C)N(Cc2ccccc2)C[C@@H]1CC(=O)O [Compound 81]	1.15 (0.02)	
CC(C)CCNc1ncccc1C(=O)N1CCN(CCCc2ccccc2)C[C@@H]1C [Compound 35]	4.57 (0.38)	0.0128
COC(=O)C[C@@H]1CN(Cc2ccccc2)[C@H](C)CN1C(=O)c1cccnc1NCCC(C)C [Compound 75]	2.65 (0.04)	0.00794
CC(C)CCNc1ncccc1C(=O)N1CCN(Cc2ccccc2C(=O)O)CC1 [Compound 58]	1.30 (0.05)	
CC(C)CCNc1ncccc1C(=O)N1C[C@H](CC(=O)O)N(Cc2ccccc2)[C@@H](C)C1 [Compound 66]	0.96 (0.03)	
CC(C)CCNc1ncccc1C(=O)N1C[C@@H](C)N(Cc2ccccc2)C[C@H]1CC(=O)O [Compound 83]	1.02 (0.03)	
CC(C)CCNc1ncccc1C(=O)N1CCN(C)C[C@H]1C [Compound 50]	0.93 (0.05)	
CC(C)CCNc1ncccc1C(=O)N1CCN(Cc2ccccc2)C[C@@H]1CC(C)C [Compound 94]	3.65 (0.10)	0.003
Cc1cc(C(=O)N2CCN(C(c3ccccc3)c3ccccc3)CC2)nn1C [Compound 30, reference compound]	1.93 (0.08)	0.0673
CC(C)CCNc1ncccc1C(=O)N1C[C@@H](CC(=O)O)N(Cc2ccccc2)[C@H](C)C1 [Compound 68]	1.02 (0.03)	
CC(C)CCNc1ncccc1C(=O)N1CCN(Cc2ccccc2)[C@H](C)[C@@H]1CC(=O)O [Compound 79]	1.23 (0.02)	
Cc1ccc(CN2CCN(C(=O)c3cccnc3NCCC(C)C)[C@@H](C)C2)cc1 [Compound 33]	3.89 (0.21)	0.0187
CC(C)Nc1ncccc1C(=O)N1CCN(Cc2ccccc2)[C@H](C)C1 [Compound 85]	1.48 (0.16)	
CC(C)CCNc1ncccc1C(=O)N1CCN(Cc2ccc(C(=O)O)cc2)CC1 [Compound 60]	1.06 (0.05)	
C[C@@H]1CN(C(=O)c2cccnc2NC2CC2)CCN1Cc1ccccc1 [Compound 86]	1.35 (0.04)	
CC(C)CCNc1ncccc1C(=O)N1CCN(Cc2ccccc2)[C@@H](C)[C@H]1CC(=O)O [Compound 77]	1.09 (0.06)	
CC(C)CNc1ncccc1C(=O)N1CCN(Cc2ccccc2)[C@H](C)C1 [Compound 87]	2.07 (0.03)	
COC(=O)C[C@@H]1CN(C(=O)c2cccnc2NCCC(C)C)C[C@H](C)N1Cc1ccccc1 [Compound 61]	2.89 (0.07)	0.0152
Cc1cccc(CN2CCN(C(=O)c3cccnc3NCCC(C)C)[C@@H](C)C2)c1 [Compound 32]	3.85 (0.09)	0.0143
